For series [1], the system named is Pseudomonas aeruginosa. The series can be described thus: Antibacterial activity against polymyxin-susceptible Pseudomonas aeruginosa ATCC 27853 clinical isolates assessed as reduction in bacterial growth by broth microdilution method. The class given is functional.
Series [2] has as its system Pseudomonas aeruginosa. Description: Antibacterial activity against Carbapenem-resistant Pseudomonas aeruginosa FADD1-PA022 clinical isolates assessed as reduction in bacterial growth by broth microdilution method. The class given is functional. In general terms: Broth dilution looks for growth in wells or tubes with falling amounts of substance.
Series [3] relates to Pseudomonas aeruginosa. The series can be described thus: Antibacterial activity against Carbapenem-resistant Pseudomonas aeruginosa FADD1-PA001 clinical isolates assessed as reduction in bacterial growth by broth microdilution method. The class given is functional.
Series [4] concerns Pseudomonas aeruginosa. Description: Antibacterial activity against polymyxin-susceptible Pseudomonas aeruginosa FADD1-PA038 clinical isolates assessed as reduction in bacterial growth by broth microdilution method. The class given is functional.
For series [5], the system named is Pseudomonas aeruginosa. Description: Antibacterial activity against polymyxin-susceptible Pseudomonas aeruginosa FADD1-PA025 clinical isolates assessed as reduction in bacterial growth by broth microdilution method. Format: functional.
The subject of series [6] is Acinetobacter baumannii. Description: Antibacterial activity against polymyxin-susceptible Acinetobacter baumannii ATCC 19606 clinical isolates assessed as reduction in bacterial growth by broth microdilution method. Format: functional.
For series [7], the system named is Acinetobacter baumannii. The series can be described thus: Antibacterial activity against Carbapenem-resistant Acinetobacter baumannii FADD1-AB034 clinical isolates assessed as reduction in bacterial growth by broth microdilution method. The class given is functional.
Series [8] has as its system Acinetobacter baumannii. The series can be described thus: Antibacterial activity against polymyxin-susceptible Acinetobacter baumannii ATCC 17978 clinical isolates assessed as reduction in bacterial growth by broth microdilution method. The class given is functional.
Series [9] has as its system Acinetobacter baumannii. Description: Antibacterial activity against Carbapenem-resistant Acinetobacter baumannii FADD1-AB030 clinical isolates assessed as reduction in bacterial growth by broth microdilution method. Format: functional.
The subject of series [10] is Klebsiella pneumoniae. The series can be described thus: Antibacterial activity against Carbapenem-resistant Klebsiella pneumoniae FADD1-KP032 clinical isolates assessed as reduction in bacterial growth by broth microdilution method. The class given is functional.
Series [11] relates to Klebsiella pneumoniae. The series can be described thus: Antibacterial activity against Carbapenem-resistant Klebsiella pneumoniae FADD1-KP022 clinical isolates assessed as reduction in bacterial growth by broth microdilution method. The class given is functional.
The subject of series [12] is Klebsiella pneumoniae. The series can be described thus: Antibacterial activity against Carbapenem-resistant Klebsiella pneumoniae BM1 clinical isolates assessed as reduction in bacterial growth by broth microdilution method. The class given is functional.
Series [13] deals with Klebsiella pneumoniae. The series can be described thus: Antibacterial activity against polymyxin-susceptible Klebsiella pneumoniae ATCC 700721 clinical isolates assessed as reduction in bacterial growth by broth microdilution method. Format: functional.
The test system of series [14] is Klebsiella pneumoniae. Description: Antibacterial activity against Carbapenem-resistant Klebsiella pneumoniae FADD1-KP065 clinical isolates assessed as reduction in bacterial growth by broth microdilution method. Format: functional.
In series [15] the test system is Enterobacter cloacae. The series can be described thus: Antibacterial activity against polymyxin-susceptible Enterobacter cloacae FADD1-EC006 clinical isolates assessed as reduction in bacterial growth by broth microdilution method. Format: functional.
The subject of series [16] is Enterobacter cloacae. The series can be described thus: Antibacterial activity against polymyxin-susceptible Enterobacter cloacae FADD1-EC001 clinical isolates assessed as reduction in bacterial growth by broth microdilution method. Format: functional.
For series [17], the system named is Enterobacter cloacae. The series can be described thus: Antibacterial activity against polymyxin-susceptible Enterobacter cloacae FADD1-EC003 clinical isolates assessed as reduction in bacterial growth by broth microdilution method. The class given is functional.
The nature of series [18]: Acute toxicity in Swiss mouse assessed as maximum tolerated dose administered intravenously measured over 24 hrs. The conditions noted are these: in vivo, route iv.
Series [19] can be described thus: Nephrotoxicity in Swiss mouse assessed as histopathological changes in kidney by measuring semiquantitative score at 12 mg/kg, sc administered as free base every 2 hrs for 6 doses and measured at 20 hrs. Format: toxicity, organism-based. The conditions noted are these: in vivo.

Converted amounts (≈) assume the structure as drawn.

As a reminder, the MIC is the lowest concentration found to suppress growth. What is called MTD is the highest dose tested that stayed within the study's limit of toxicity. Take `CC[C@H](C)CCCCC(=O)N[C@@H](CCN)C(=O)N[C@H](C(=O)N[C@@H](CCN)C(=O)N[C@H]1CCNC(=O)[C@H](C)NC(=O)[C@H](CCN)NC(=O)[C@H](CCN)NC(=O)[C@H](CC(C)C)NC(=O)[C@@H](Cc2ccccc2)NC(=O)[C@H](CCN)NC1=O)[C@@H](C)O`: the minimum inhibitory concentration (MIC) amounted to 1 µg/mL (≈ 0.852 µM) in [1]; 1 µg/mL (≈ 0.852 µM) in series [2]; 1 µg/mL (≈ 0.852 µM) in series [3]; 8 µg/mL (≈ 6.82 µM) in series [4]; 1 µg/mL (≈ 0.852 µM) in series [5]; 1 µg/mL (≈ 0.852 µM) in series [6]. Further, the minimal inhibitory concentration (MIC) in [7] is 1 µg/mL (≈ 0.852 µM); in series [8] it was 1 µg/mL (≈ 0.852 µM); in series [9], 1 µg/mL (≈ 0.852 µM); in [10], 1 µg/mL (≈ 0.852 µM); in [11], 0.5 µg/mL (≈ 0.426 µM); in [12] it was 2 µg/mL (≈ 1.7 µM). In addition, the minimal inhibitory concentration (MIC) in [13] came to 4 µg/mL (≈ 3.41 µM); in series [14], 0.5 µg/mL (≈ 0.426 µM); in [15], 4 µg/mL (≈ 3.41 µM); in series [16], 2 µg/mL (≈ 1.7 µM); in series [17], 1 µg/mL (≈ 0.852 µM). Further, the maximum tolerated dose (MTD) at 24 h in series [18] was 2.7 mg/kg. For the same compound, in [19], the Activity is 0.

Consider `CC[C@H](C)CCCCC(=O)N[C@@H](CCN)C(=O)N[C@H](C(=O)N[C@@H](CCN)C(=O)N[C@H]1CCNC(=O)[C@H]([C@H](C)O)NC(=O)[C@H](CCN)NC(=O)[C@H](CCN)NC(=O)[C@H](CC(C)C)NC(=O)[C@@H](Cc2ccccc2)NC(=O)[C@H](CCN)NC1=O)[C@@H](C)O`, for which the MIC amounted to 1 µg/mL (≈ 0.831 µM) in series [1]; 1 µg/mL (≈ 0.831 µM) in series [2]; 1 µg/mL (≈ 0.831 µM) in [3]; 4 µg/mL (≈ 3.32 µM) in series [4]; 2 µg/mL (≈ 1.66 µM) in series [5]; 8 µg/mL (≈ 6.65 µM) in series [6]. The minimal inhibitory concentration (MIC) in series [7] was 2 µg/mL (≈ 1.66 µM); in series [8], 4 µg/mL (≈ 3.32 µM); in [9] it was 2 µg/mL (≈ 1.66 µM); in [10], 2 µg/mL (≈ 1.66 µM); in series [11], 0.25 µg/mL (≈ 0.208 µM); in series [12], 1 µg/mL (≈ 0.831 µM). The MIC in series [13] was determined as 1 µg/mL (≈ 0.831 µM); in [14], 0.5 µg/mL (≈ 0.415 µM); in [15], 8 µg/mL (≈ 6.65 µM); in series [16], 2 µg/mL (≈ 1.66 µM); in [17] it was 1 µg/mL (≈ 0.831 µM). Further, the MTD at 24 h in [18] came out at 4.1 mg/kg. Besides, the Activity in [19] was 0.

As for `CC[C@H](C)CCCCC(=O)N[C@@H](CCN)C(=O)N[C@H](C(=O)N[C@@H](CCN)C(=O)N[C@H]1CCNC(=O)[C@H](CC)NC(=O)[C@H](CCN)NC(=O)[C@H](CCN)NC(=O)[C@H](CC(C)C)NC(=O)[C@@H](Cc2ccccc2)NC(=O)[C@H](CCN)NC1=O)[C@@H](C)O`, the minimal inhibitory concentration (MIC) in series [1] was 1 µg/mL (≈ 0.842 µM); in series [2], 1 µg/mL (≈ 0.842 µM); in series [3], 1 µg/mL (≈ 0.842 µM); in series [4], 2 µg/mL (≈ 1.68 µM); in series [5], 1 µg/mL (≈ 0.842 µM); in series [6], 2 µg/mL (≈ 1.68 µM). Further, the MIC in [7] came out at 2 µg/mL (≈ 1.68 µM); in series [8], 2 µg/mL (≈ 1.68 µM); in [9] it was 1 µg/mL (≈ 0.842 µM); in [10], 1 µg/mL (≈ 0.842 µM); in series [11], 0.25 µg/mL (≈ 0.211 µM); in [12], 0.5 µg/mL (≈ 0.421 µM). For the same compound, the MIC was found to be 4 µg/mL (≈ 3.37 µM) in [13]; 0.5 µg/mL (≈ 0.421 µM) in series [14]; 4 µg/mL (≈ 3.37 µM) in series [15]; 2 µg/mL (≈ 1.68 µM) in series [16]; 1 µg/mL (≈ 0.842 µM) in series [17]. For the same compound, in [18], the maximum tolerated dose (MTD) at 24 h came to 4.1 mg/kg. Also, the Activity in series [19] amounted to 0.

Take `CCC[C@@H]1NC(=O)[C@H](CCN)NC(=O)[C@H](CCN)NC(=O)[C@H](CC(C)C)NC(=O)[C@@H](Cc2ccccc2)NC(=O)[C@H](CCN)NC(=O)[C@@H](NC(=O)[C@H](CCN)NC(=O)[C@@H](NC(=O)[C@H](CCN)NC(=O)CCCC[C@@H](C)CC)[C@@H](C)O)CCNC1=O`: the MIC is 1 µg/mL (≈ 0.832 µM) in series [1]; 1 µg/mL (≈ 0.832 µM) in series [2]; 1 µg/mL (≈ 0.832 µM) in [3]; 2 µg/mL (≈ 1.66 µM) in series [4]; 2 µg/mL (≈ 1.66 µM) in series [5]; 4 µg/mL (≈ 3.33 µM) in [6]. The minimum inhibitory concentration (MIC) in series [7] is 4 µg/mL (≈ 3.33 µM); in series [8] it was 4 µg/mL (≈ 3.33 µM); in series [9], 0.5 µg/mL (≈ 0.416 µM); in [10], 1 µg/mL (≈ 0.832 µM); in series [11] it was 0.5 µg/mL (≈ 0.416 µM); in series [12], 1 µg/mL (≈ 0.832 µM). The minimum inhibitory concentration (MIC) in series [13] came out at 2 µg/mL (≈ 1.66 µM); in [14] it was 0.5 µg/mL (≈ 0.416 µM); in series [15], 2 µg/mL (≈ 1.66 µM); in [16], 2 µg/mL (≈ 1.66 µM); in [17], 2 µg/mL (≈ 1.66 µM). Further, the MTD at 24 h in series [18] was found to be 4.1 mg/kg. In addition, in series [19], the Activity worked out at 0.

These data come from ChEMBL document CHEMBL5316337, “Critical Role of Position 10 Residue in the Polymyxin Antimicrobial Activity” (J Med Chem, 2023).
